The source made the active and inactive calls. The rule behind the calls is not given here.
Key:
[1] = biological target: T1, Vascular endothelial growth factor receptor 2 (Homo sapiens, UniProt P35968); conditions: at 1 µM
Description: Inhibition of VEGFR2 (unknown origin) at 1 uM using poly (Glu,Tyr) 4:1 as substrate measured after 1 hr in presence of ATP by spectrophotometric analysis relative to control

[2] = biological target: Epidermal growth factor receptor (Homo sapiens) (UniProt P00533); experiment: Inhibition of EGFR (unknown origin) at 1 uM using poly (Glu,Tyr) 4:1 as substrate measured after 1 hr in presence of ATP by spectrophotometric analysis relative to control
[3] = test system: MDA-MB-231; experiment: Antiproliferative activity against human MDA-MB-231 cells expressing EGFR assessed as cell growth inhibition measured after 48 hrs by MTT assay; format: functional, cell-based; conditions: MDA-MB-231, 48 h
[4] = test system: HUVEC; experiment: Antiproliferative activity against human HUVEC cells expressing VEGFR2 assessed as cell growth inhibition measured after 48 hrs by MTT assay; format: functional, cell-based
[5] = test system: HepG2; experiment: Antiproliferative activity against human HepG2 cells expressing VEGFR2 assessed as cell growth inhibition measured after 48 hrs by MTT assay; format: functional, cell-based; conditions: HepG2, 48 h
[6] = test system: Chorioallantoic membrane; experiment: Antiangiogenic activity in chicken fertilized egg chorioallantoic membrane assessed as decrease in blood vessel growth at 10 nM measured after 48 hrs by microscopic analysis; format: functional, tissue-based; conditions: Gallus gallus
[7] = test system: A549; experiment: Antiproliferative activity against human A549 cells expressing EGFR assessed as cell growth inhibition measured after 48 hrs by MTT assay; format: functional, cell-based; conditions: A549, 48 h
[8] = biological target: T1, Vascular endothelial growth factor receptor 2; experiment: Inhibition of VEGFR2 (unknown origin) using poly (Glu,Tyr) 4:1 as substrate measured after 1 hr in presence of ATP by spectrophotometric analysis
[9] = test system: L02; experiment: Cytotoxicity against human LO2 cells; format: cell-based

T1 sequence (P35968 whole entry): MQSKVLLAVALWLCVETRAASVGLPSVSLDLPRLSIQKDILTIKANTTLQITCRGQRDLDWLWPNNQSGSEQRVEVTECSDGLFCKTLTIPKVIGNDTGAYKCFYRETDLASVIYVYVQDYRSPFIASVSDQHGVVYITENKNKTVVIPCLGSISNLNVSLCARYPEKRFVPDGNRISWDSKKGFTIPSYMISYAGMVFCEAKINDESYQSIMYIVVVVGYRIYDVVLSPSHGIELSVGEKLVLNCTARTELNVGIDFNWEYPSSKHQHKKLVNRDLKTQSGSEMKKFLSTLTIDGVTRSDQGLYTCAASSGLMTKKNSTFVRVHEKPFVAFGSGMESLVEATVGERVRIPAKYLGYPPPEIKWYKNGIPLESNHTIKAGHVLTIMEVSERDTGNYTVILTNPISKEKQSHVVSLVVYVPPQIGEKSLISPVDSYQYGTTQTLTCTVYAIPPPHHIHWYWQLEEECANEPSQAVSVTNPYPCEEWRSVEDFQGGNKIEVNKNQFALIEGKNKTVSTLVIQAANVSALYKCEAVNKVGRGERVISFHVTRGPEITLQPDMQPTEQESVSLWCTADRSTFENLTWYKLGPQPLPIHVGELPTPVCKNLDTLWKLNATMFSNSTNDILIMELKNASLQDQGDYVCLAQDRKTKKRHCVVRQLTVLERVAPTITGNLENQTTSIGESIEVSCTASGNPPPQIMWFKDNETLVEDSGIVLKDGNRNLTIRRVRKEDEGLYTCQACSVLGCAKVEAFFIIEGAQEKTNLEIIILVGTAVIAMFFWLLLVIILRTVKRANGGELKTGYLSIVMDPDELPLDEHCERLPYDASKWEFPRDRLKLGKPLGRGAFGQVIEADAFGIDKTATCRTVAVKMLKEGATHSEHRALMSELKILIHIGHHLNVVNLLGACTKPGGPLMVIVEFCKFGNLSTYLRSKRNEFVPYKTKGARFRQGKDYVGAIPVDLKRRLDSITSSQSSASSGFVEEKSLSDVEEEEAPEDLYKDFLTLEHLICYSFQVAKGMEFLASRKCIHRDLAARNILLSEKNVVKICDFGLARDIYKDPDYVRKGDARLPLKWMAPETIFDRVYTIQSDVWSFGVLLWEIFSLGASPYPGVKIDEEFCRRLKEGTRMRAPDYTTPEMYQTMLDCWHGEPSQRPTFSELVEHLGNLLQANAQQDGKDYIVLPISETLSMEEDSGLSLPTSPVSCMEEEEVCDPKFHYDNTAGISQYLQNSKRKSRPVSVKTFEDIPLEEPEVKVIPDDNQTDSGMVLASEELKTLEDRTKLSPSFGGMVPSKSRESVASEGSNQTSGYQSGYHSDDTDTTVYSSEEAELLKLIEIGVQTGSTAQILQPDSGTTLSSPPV
Sequence of Epidermal growth factor receptor (Homo sapiens) (P00533 whole entry): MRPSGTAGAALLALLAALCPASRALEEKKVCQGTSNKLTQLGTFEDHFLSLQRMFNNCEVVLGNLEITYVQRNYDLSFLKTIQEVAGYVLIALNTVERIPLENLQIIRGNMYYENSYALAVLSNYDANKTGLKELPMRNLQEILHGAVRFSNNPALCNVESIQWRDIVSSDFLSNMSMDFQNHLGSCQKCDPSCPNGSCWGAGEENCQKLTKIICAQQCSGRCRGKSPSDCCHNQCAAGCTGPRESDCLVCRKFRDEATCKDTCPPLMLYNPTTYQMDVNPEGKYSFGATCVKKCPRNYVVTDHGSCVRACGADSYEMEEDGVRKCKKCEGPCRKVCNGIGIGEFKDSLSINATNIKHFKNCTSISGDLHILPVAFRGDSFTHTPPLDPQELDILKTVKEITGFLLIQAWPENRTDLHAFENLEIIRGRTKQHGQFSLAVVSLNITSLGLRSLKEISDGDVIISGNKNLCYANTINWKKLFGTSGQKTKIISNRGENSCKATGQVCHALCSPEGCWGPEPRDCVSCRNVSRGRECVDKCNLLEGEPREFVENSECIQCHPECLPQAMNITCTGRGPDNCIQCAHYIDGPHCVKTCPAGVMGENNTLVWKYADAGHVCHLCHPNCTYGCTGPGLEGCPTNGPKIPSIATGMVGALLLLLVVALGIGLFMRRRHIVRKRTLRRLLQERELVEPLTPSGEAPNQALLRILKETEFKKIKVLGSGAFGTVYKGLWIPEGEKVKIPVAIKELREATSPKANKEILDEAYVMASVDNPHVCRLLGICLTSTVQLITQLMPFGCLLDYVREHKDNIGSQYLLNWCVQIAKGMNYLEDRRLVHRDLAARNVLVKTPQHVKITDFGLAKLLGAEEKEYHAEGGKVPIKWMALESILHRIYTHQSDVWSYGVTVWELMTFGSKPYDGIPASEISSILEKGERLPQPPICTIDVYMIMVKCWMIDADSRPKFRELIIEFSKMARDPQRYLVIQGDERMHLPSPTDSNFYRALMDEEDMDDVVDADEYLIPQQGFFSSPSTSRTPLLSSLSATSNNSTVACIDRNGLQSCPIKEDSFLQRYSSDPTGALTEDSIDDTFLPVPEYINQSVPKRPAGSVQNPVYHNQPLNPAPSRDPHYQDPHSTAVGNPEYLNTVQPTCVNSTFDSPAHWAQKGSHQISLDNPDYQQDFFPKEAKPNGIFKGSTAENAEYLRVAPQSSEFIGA

Structure (SMILES) | inhibition [1] [%] | inhibition [2] [%] | IC50 [3] [µM] | IC50 [4] [µM] | IC50 [5] [µM] | Activity [6] | IC50 [7] [µM] | IC50 [8] [nM] | IC50 [9] [µM]
O=C(Nc1ccc(Nc2ccc([N+](=O)[O-])c3ncnc(O)c23)cc1)c1cccc(F)c1 | 69.4 | 36.9 | > 100 | 38.9 | 36.1 | Active | 83.3 | – | –
Cc1ccc(C(=O)Nc2cccc(Nc3ccc([N+](=O)[O-])c4ncnc(O)c34)c2)cc1 | 32.7 | 12.8 | > 100 | 80.5 | 74 | – | > 100 | – | –
Cc1cccc(C(=O)Nc2cccc(Nc3ccc([N+](=O)[O-])c4ncnc(O)c34)c2)c1 | 18 | 11.3 | > 100 | 93.6 | > 100 | – | > 100 | – | –
O=C(Nc1ccc(Nc2ccc([N+](=O)[O-])c3ncnc(O)c23)cc1)c1ccccc1 | 92.4 | 53.8 | 86.3 | 5.7 | 7.41 | Active | 87.4 | 735 | 65.3
O=C(Nc1cccc(Nc2ccc([N+](=O)[O-])c3ncnc(O)c23)c1)c1ccc(Cl)cc1 | 38.5 | 9.4 | > 100 | 73.8 | 76.3 | – | > 100 | – | –
Cc1ccc(C(=O)Nc2ccc(Nc3ccc([N+](=O)[O-])c4ncnc(O)c34)cc2)cc1 | 83.7 | 57.2 | 94.7 | 14.3 | 18.5 | Active | > 100 | – | 93.2
O=C(Nc1cccc(Nc2ccc([N+](=O)[O-])c3ncnc(O)c23)c1)c1cccc(F)c1 | 38.1 | 27.3 | > 100 | 74.2 | 72.1 | – | > 100 | – | –
O=C(Nc1cccc(Nc2ccc([N+](=O)[O-])c3ncnc(O)c23)c1)c1ccc(F)cc1 | 41.9 | 18.5 | > 100 | 63.2 | 68.5 | – | 95 | – | –
Cc1ccccc1C(=O)Nc1ccc(Nc2ccc([N+](=O)[O-])c3ncnc(O)c23)cc1 | 65.8 | 41.7 | > 100 | 37.2 | 30.1 | – | 91.6 | – | –
Cc1ccccc1C(=O)Nc1cccc(Nc2ccc([N+](=O)[O-])c3ncnc(O)c23)c1 | 21.6 | 6.4 | > 100 | 89.6 | 90.3 | – | > 100 | – | –
O=C(Nc1ccc(Nc2ccc([N+](=O)[O-])c3ncnc(O)c23)cc1)c1ccccc1F | 73.8 | 42.1 | 93.2 | 23.8 | 21 | Active | 85.8 | – | –
COc1cccc(C(=O)Nc2ccc(Nc3ccc([N+](=O)[O-])c4ncnc(O)c34)cc2)c1 | 47.6 | 36.7 | > 100 | 57.8 | 64.2 | – | > 100 | – | –
Cc1cccc(C(=O)Nc2ccc(Nc3ccc([N+](=O)[O-])c4ncnc(O)c34)cc2)c1 | 58.2 | 37.8 | > 100 | 47 | 40.8 | – | > 100 | – | –
